Laboratory results reported in patent publication US12319752B2, “Heparin-binding cationic peptide self-assembling peptide amphiphiles useful against drug-resistant bacteria” (priority 2016, dated 2025).
Values after ≈ are worked out from the molar mass of the structure shown. Residues, ends and D or L forms follow the SMILES beside them. *: point of attachment. Palmitoyl = CCCCCCCCCCCCCCCC(=O)*

Experiments:
[1] = tested on: MRSA; type: cell-based, methicillin-resistant S. aureus (MRSA, ATCC #43300); details: 24 h
Procedure: (§1) This assay was performed to investigate the inhibitory effects of each peptide against Gram-positive Staphylococcus aureus (S. aureus, ATCC #25923) and methicillin-resistant S. aureus (MRSA, ATCC #43300), as well as Gram-negative Escherichia coli (E. coli, ATCC #25922), and multidrug-resistant E. coli (MDR E. coli, ATCC #BAA-2471). In all experiments, solutions of each peptide at the concentrations from 20 μM to 100 μM in 3% Tryptic Soy Broth (TSB) media were freshly prepared. A single colony of bacteria was isolated from a stock agar plate and cultured overnight in 4 mL of 3% TSB on a shaking incubator set at 200 rpm and 37° C. […] The bacteria were incubated inside a spectrophotometer (Spectra-Max Paradigm, Molecular Devices, Sunnyvale, CA) at 37° C. under static conditions for 20 h, and the bacterial growth curves were measured in terms of turbidity at OD562 every 2 minutes. The normalized OD562 values of samples were calculated by subtracting the […].
(§2) The minimum inhibitory concentration (MIC) of ACA-PA was tested against drug-resistant bacteria and compared with conventional penicillin-streptomycin (10,000 U/mL, Thermo Fisher Scientific, Waltham, MA, USA) as well. […] The OD562 was measured at the end of treatment. […]

[2] = tested on: LPS (from Escherichia coli O111:B4); experiment: LPS binding, BODIPY TR cadaverine (BC) probe displacement assay; details: 20 μM to 100 μM peptide, 100 μg/mL LPS
Procedure: The binding of each peptide at various concentrations to LPS was determined by the capability of displacing the BC probes bound with LPS. The fluorescent BC probe was used as a probe to determine the level of peptide bound with LPS. BC probe binds to native LPS and particularly target the lipid A portion. The fluorescent intensity of BC probe decreases as it binds to LPS. […] For instance, the LPS binding factor of samples containing 60 μM of CVK-PA was as double as the 40 μM sample.
The LPS binding affinity of peptide was examined with the BODIPY TR cadaverine (BC) fluorescent probe displacement assay as previously described. Stock solution of each peptide was diluted to predetermined concentrations with 10 mM HEPES buffer (pH=7.5, Thermo Fisher Scientific, Waltham, MA, USA). […] Followed by incubation for 15 minutes in room temperature, the fluorescent intensity was measured using a spectrophotometer at an excitation wavelength of 580 nm and an emission wavelength of 620 nm. Finally, the LPS binding factor of each sample was calculated using the equation: […]
When peptides bind to LPS and displace the BC probe, fluorescence intensity of the probe is increased. LPS binding affinity of each peptide was then analyzed by the fluorescent intensity of the displaced BC probe. […]

[3] = tested on: MRSA; experiment: Bacterial growth inhibition (growth curves, OD562, 20 h); type: cell-based, methicillin-resistant S. aureus (MRSA, ATCC #43300)
Procedure: Gram-positive (S. aureus and MRSA) and Gram-negative (E. coli and MDR E. coli) bacteria were incubated with peptide concentrations ranging from 20 to 100 μM, and time-lapsed bacterial growth was monitored for 20 hours by determining the optical density at 562 nm (O.D. 562 nm). […] At the highest concentration tested (100 μM), the time to exponential growth phase of S. aurues was delayed by about 18 h (FIG. 5B), and was prolonged by almost 13 h for MRSA (FIG. 5A), while bacteria incubated without ACA-PA entered the exponential growth phase within 4 h. Gram-positive bacteria were also susceptible to the ACA-PA even below their CMC.
The MIC values of ACA-PA towards drug-resistant bacteria were determined after 24 h of incubation (Table 2).
This assay was performed to investigate the inhibitory effects of each peptide against Gram-positive Staphylococcus aureus (S. aureus, ATCC #25923) and methicillin-resistant S. aureus (MRSA, ATCC #43300), as well as Gram-negative Escherichia coli (E. coli, ATCC #25922), and multidrug-resistant E. coli (MDR E. coli, ATCC #BAA-2471). In all experiments, solutions of each peptide at the concentrations from 20 μM to 100 μM in 3% Tryptic Soy Broth (TSB) media were freshly prepared. A single colony of bacteria was isolated from a stock agar plate and cultured overnight in 4 mL of 3% TSB on a shaking incubator set at 200 rpm and 37° C. The bacteria culture was adjusted to an optical density at 562 nm (OD562) to about 0.52 (10^9 cells/mL), and the resulting bacteria suspension was subsequently diluted to about 10^6 colony forming units (CFU) per mL in each sample. The control samples were bacteria incubated in TSB media without peptides. The bacteria were incubated inside a spectrophotometer (Spectra-Max Paradigm, Molecular Devices, Sunnyvale, CA) at 37° C. under static conditions for 20 h, and the bacterial growth curves were measured in terms of turbidity at OD562 every 2 minutes. The normalized OD562 values of samples were calculated by subtracting the […].

[4] = tested on: MDR E. coli; type: cell-based, multidrug-resistant E. coli (MDR E. coli, ATCC #BAA-2471); details: 24 h
Procedure: as §1, §2

[5] = tested on: MDR E. coli; experiment: Live/dead bacterial viability assay; type: cell-based, multidrug-resistant E. coli (MDR E. coli); details: 4 h
Excerpt: To further investigate bacteria viability after treatment with ACA-PA, the live/dead assay was used to confirm the antibacterial actions of ACA-PA. Dead bacteria with disrupted membrane were stained a first color, whereas live bacteria were stained with a second color fluorescence. A large amount of robust MRSA bacteria in the untreated control sample appeared a second color and in spherical shapes (FIG. 10A). […] This antibacterial activity was dependent on the concentration of PA, yet was not determined by peptide self-assembly. Nonetheless, Gram-negative MDR E. coli responded to the treatment of ACA-PA differently from Gram-positive MRSA.
The live/dead bacterial viability assay was conducted to further assess the bactericidal efficacy of ACA-PA using the LIVE/DEAD BacLight Bacterial Viability Kits (Kits 71007, Molecular Probes, Eugene, OR, USA). MRSA and MDR E. coli bacteria (100 μl, 10^6 CFU/mL) were incubated with 80 μM and 40 μM of peptide in 3% TSB media at 37° C. for 4 h on a 96-well plate, and the control samples of bacteria were incubated in 3% TSB media only. […] The live bacteria stained fluorescent a second color (SYTO9 nucleic acid stain), whereas the dead bacteria with disrupted membranes stained fluorescent a first color (propidium iodide, PI).

CCCCCCCCCCCCCCCC(=O)N[C@H](C(=O)N[C@H](C(=O)N[C@H](C(=O)N[C@H](C(=O)N[C@@H](CCCCN)C(=O)N[C@@H](CCCCN)C(=O)N[C@@H](CCCCN)C(=O)N[C@@H](CCCCN)C(=O)NCC(=O)N[C@@H](C)C(=O)N[C@@H](CCCCN)C(=O)N[C@@H](CCCCN)C(=O)N[C@@H](C)C(=O)N[C@@H](CCCNC(=N)N)C(=O)N[C@@H](C)C(=O)N[C@@H](C)C(=O)N[C@@H](CCCCN)C(=O)N[C@@H](CCCCN)C(=O)N[C@@H](C)C(=O)N[C@@H](CCCNC(=N)N)C(=O)N[C@@H](C)C(=O)O)C(C)C)C(C)C)C(C)C)C(C)C [ACA-PA, C16-V4K4G(AKKARA)2 (SEQ ID NO: 7)] (Palmitoyl-VVVVKKKKGAKKARAAKKARA-OH; N-terminus and C-terminus assumed)
Minimum inhibitory concentration (MIC) [1]: 300 mg/L (≈ 121 µM) | LPS binding factor [2]: highest LPS binding capability among the peptides investigated | prolongation of time to exponential growth phase ([3]; 100 μM): ~13 h | bacterial growth inhibition ([3]; 20 to 100 μM, 20 h): remarkably inhibited the proliferation | susceptibility of bacterial growth ([3]; below the CMC): susceptible | Minimum inhibitory concentration (MIC) [4]: 400 mg/L (≈ 162 µM) | bacterial viability (live/dead staining) ([5]; 40 μM): unable to induce considerable cell mortality | bacterial viability (live/dead staining) ([5]; 80 μM): enhanced the number of dead bacteria drastically
